{"source": "patent US9884825B2", "about": "“Curcumin analogs and methods of making and using thereof” (Georgia State University Research Foundation, Inc., priority 2012, dated 2018)", "data": [{"units": {"melting point": "°C"}, "values": [{"smiles": "CCc1ccc(/C=C2\\CN(S(=O)(=O)c3ccc(C)cc3)C/C(=C\\c3ccc(CC)cc3)C2=O)cc1", "note": "[3b, 3,5-Bis(4-etbylbenzylidene)-1-tosylpiperidin-4-one]", "melting point": 165}, {"smiles": "CCCc1ccc(/C=C2\\CN(S(=O)(=O)c3ccc(C)cc3)C/C(=C\\c3ccc(CCC)cc3)C2=O)cc1", "note": "[3c, 3,5-Bis(4-propylbenzylidene)-1-tosylpiperidin-4-one]", "melting point": 157}, {"smiles": "Cc1ccc(/C=C2\\CN(S(=O)(=O)c3ccc(C)cc3)C/C(=C\\c3ccc(C)cc3)C2=O)cc1", "note": "[3d, 3,5-Bis(4-methylbenzylidene)-1-tosylpiperidin-4-one]", "melting point": 187}, {"smiles": "Cc1ccc(S(=O)(=O)N2C/C(=C\\c3ccc(Cl)cc3)C(=O)/C(=C/c3ccc(Cl)cc3)C2)cc1", "note": "[3e, 3,5-Bis(4-chlorobenzylidene)-1-tosylpiperidin-4-one]", "melting point": 209}, {"smiles": "COc1ccc(/C=C2\\CN(S(=O)(=O)c3ccc(C)cc3)C/C(=C\\c3ccc(OC)cc3)C2=O)cc1", "note": "[3f, 3,5-Bis(4-methoxybenzylidene)-1-tosylpiperidin-4-one]", "melting point": 183}, {"smiles": "Cc1ccc(S(=O)(=O)N2C/C(=C\\c3ccc(C(C)(C)C)cc3)C(=O)/C(=C/c3ccc(C(C)(C)C)cc3)C2)cc1", "note": "[3g, 3,5-Bis(4-tert-butylbenzylidene)-1-tosylpiperidin-4-one]", "melting point": 220}, {"smiles": "CCCCc1ccc(/C=C2\\CN(S(=O)(=O)c3ccc(C)cc3)C/C(=C\\c3ccc(CCCC)cc3)C2=O)cc1", "note": "[3h, 3,5-Bis(4-butylbenzylidene)-1-tosylpiperidin-4-one]", "melting point": 148}, {"smiles": "Cc1ccc(S(=O)(=O)N2C/C(=C\\c3ccc(C(C)C)cc3)C(=O)/C(=C/c3ccc(C(C)C)cc3)C2)cc1", "note": "[3i, 3,5-Bis(4-isopropylbenzylidene)-1-tosylpiperidin-4-one]", "melting point": 177}, {"smiles": "Cc1ccc(/C=C2\\CN(S(=O)(=O)c3ccccc3)C/C(=C\\c3ccc(C)cc3)C2=O)cc1", "note": "[4a, 3,5-Bis(4-methylbenzylidene)-1-(phenylsulfonyl)piperidin-4-one]", "melting point": 211}, {"smiles": "CCc1ccc(/C=C2\\CN(S(=O)(=O)c3ccccc3)C/C(=C\\c3ccc(CC)cc3)C2=O)cc1", "note": "[4b, 3,5-Bis(4-ethylbenzylidene)-1-(phenylsulfonyl)piperidin-4-one]", "melting point": 165}, {"smiles": "CC(C)c1ccc(/C=C2\\CN(S(=O)(=O)c3ccccc3)C/C(=C\\c3ccc(C(C)C)cc3)C2=O)cc1", "note": "[4c, 3,5-Bis(4-isopropylbenzylidene)-1-(phenylsulfonyl)piperidin-4-one]", "melting point": 170}, {"smiles": "CCCc1ccc(/C=C2\\CN(S(=O)(=O)c3ccccc3)C/C(=C\\c3ccc(CCC)cc3)C2=O)cc1", "note": "[4d, 1-(Phenylsulfonyl)-3,5-bis(4-propylbenzylidene)piperidin-4-one]", "melting point": 153}, {"smiles": "CC(C)(C)c1ccc(/C=C2\\CN(S(=O)(=O)c3ccccc3)C/C(=C\\c3ccc(C(C)(C)C)cc3)C2=O)cc1", "note": "[4f, 3,5-Bis(4-tert-butylbenzylidene)-1-(phenylsulfonyl)piperidin-4-one]", "melting point": 194}, {"smiles": "CCCCc1ccc(/C=C2\\CN(S(=O)(=O)c3ccccc3)C/C(=C\\c3ccc(CCCC)cc3)C2=O)cc1", "note": "[4g, 3,5-Bis(4-butylbenzylidene)-1-(phenylsulfonyl)piperidin-4-one]", "melting point": 134}, {"smiles": "COc1ccc(/C=C2\\CN(S(=O)(=O)c3ccccc3)C/C(=C\\c3ccc(OC)cc3)C2=O)cc1", "note": "[4h, 3,5-Bis(4-methoxybenzylidene)-1-(phenylsulfonyl)piperidin-4-one]", "melting point": 217}, {"smiles": "O=C1/C(=C/c2ccc(F)cc2)CN(S(=O)(=O)c2ccccc2)C/C1=C\\c1ccc(F)cc1", "note": "[4j, 3,5-Bis(4-fluorobenzylidene)-1-(phenylsulfonyl)piperidin-4-one]", "melting point": 181}, {"smiles": "Cc1ccc(/C=C2\\CN(Cc3ccccc3)C/C(=C\\c3ccc(C)cc3)C2=O)cc1", "note": "[5a, 1-Benzyl-3,5-bis(4-methylbenzylidene)piperidin-4-one]", "melting point": 170}, {"smiles": "CCc1ccc(/C=C2\\CN(Cc3ccccc3)C/C(=C\\c3ccc(CC)cc3)C2=O)cc1", "note": "[5c, 1-Benzyl-3,5-bis-(4-ethyl-benzylidene)-piperidin-4-one]", "melting point": 119}, {"smiles": "CC(C)c1ccc(/C=C2\\CN(Cc3ccccc3)C/C(=C\\c3ccc(C(C)C)cc3)C2=O)cc1", "note": "[5e, 1-Benzyl-3,5-bis(4-isopropylbenzylidene)piperidin-4-one]", "melting point": 157}, {"smiles": "CCCCc1ccc(/C=C2\\CN(Cc3ccccc3)C/C(=C\\c3ccc(CCCC)cc3)C2=O)cc1", "note": "[5f, 1-Benzyl-3,5-bis(4-butylbenzylidene)piperidin-4-one]", "melting point": 104}, {"smiles": "CC(C)(C)c1ccc(/C=C2\\CN(Cc3ccccc3)C/C(=C\\c3ccc(C(C)(C)C)cc3)C2=O)cc1", "note": "[5g, 1-Benzyl-3,5-bis(4-tert-butylbenzylidene)piperidin-4-one]", "melting point": 167}, {"smiles": "O=C1/C(=C/c2ccc(F)cc2)CN(Cc2ccccc2)C/C1=C\\c1ccc(F)cc1", "note": "[5j, 1-Benzyl-3,5-bis(4-fluorobenzylidene)piperidin-4-one]", "melting point": 159}, {"smiles": "CCN1C/C(=C\\c2ccc(Br)cc2)C(=O)/C(=C/c2ccc(Br)cc2)C1", "note": "[6a, 3,5-Bis-(4-bromo-benzylidene)-1-ethyl-piperidin-4-one]", "melting point": 178}, {"smiles": "CCN1C/C(=C\\c2ccc(F)cc2)C(=O)/C(=C/c2ccc(F)cc2)C1", "note": "[6c, 1-Ethyl-3,5-bis(4-fluorobenzylidene)piperidin-4-one]", "melting point": 114}, {"smiles": "CCc1ccc(/C=C2\\CN(CC)C/C(=C\\c3ccc(CC)cc3)C2=O)cc1", "note": "[6e, 1-Ethyl-3,5-bis(4-ethylbenzylidene)piperidin-4-one]", "melting point": 178}, {"smiles": "CCN1C/C(=C\\c2ccc(C(C)(C)C)cc2)C(=O)/C(=C/c2ccc(C(C)(C)C)cc2)C1", "note": "[6i, 3,5-Bis(4-tert-butylbenzylidene)-1-ethylpiperidin-4-one]", "melting point": 111}, {"smiles": "C#CCN1CC(=Cc2ccc(C(C)C)cc2)C(=O)C(=Cc2ccc(C(C)C)cc2)C1", "note": "[10c, 3,5-Bis(4-isopropylbenzylidene)-1-(prop-2-ynyl)piperidin-4-one]", "melting point": 106}, {"smiles": "C#CCN1CC(=Cc2ccc(C(C)(C)C)cc2)C(=O)C(=Cc2ccc(C(C)(C)C)cc2)C1", "note": "[10d, 3,5-Bis(4-tert-butylbenzylidene)-1-(prop-2-ynyl)piperidin-4-one]", "melting point": 182}, {"smiles": "C#CCN1CC(=Cc2ccc(CCC)cc2)C(=O)C(=Cc2ccc(CCC)cc2)C1", "note": "[10e, 1-(Prop-2-ynyl)-3,5-bis(4-propylbenzylidene)piperidin-4-one]", "melting point": 96}, {"smiles": "CCCn1cc(CN2CC(=Cc3ccc(C)cc3)C(=O)C(=Cc3ccc(C)cc3)C2)nn1", "note": "[11a, 3,5-Bis(4-methylbenzylidene)-1-((1-propyl-1H-1,2,3-triazol-4-yl)methyl)piperidin-4-one]", "melting point": 165}, {"smiles": "CCCCCn1cc(CN2CC(=Cc3ccc(C)cc3)C(=O)C(=Cc3ccc(C)cc3)C2)nn1", "note": "[11c, 3,5-Bis(4-methylbenzylidene)-1-((1-pentyl-1H-1,2,3-triazol-4-yl)methyl)piperidin-4-one]", "melting point": 169}, {"smiles": "CCCn1cc(CN2CC(=Cc3ccc(CC)cc3)C(=O)C(=Cc3ccc(CC)cc3)C2)nn1", "note": "[12a, 3,5-Bis(4-ethylbenzylidene)-1-((1-propyl-1H-1,2,3-triazol-4-yl)methyl)piperidin-4-one]", "melting point": 149}]}]}
